{"source": "patent US9637491B2", "about": "“Pyrazolo[4,3-D]pyrimidines as kinase inhibitors” (Origenis GmbH, priority 2012, dated 2017)", "molecular_target": "T1, SYK kinase (Homo sapiens, UniProt P43405)", "T1 construct": "purchased Invitrogen, Carlsbad", "assay": "SYK assay (OMNIA Kinase Assay, Invitrogen)", "format": "biochemical", "details": "SYK Activities; 1 mM ATP, 10 μM Omnia Peptide Substrate Tyr 7, 30° C.", "method_in_brief": "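SYK was added last to start phosphorylation of a chelation-enhanced SOX peptide substrate (10 μM) in the presence of 1 mM ATP and 0.2 mM DTT at 30° C. Kinetic readings at λex 360/λem 485 nm over 30 min gave velocities, fitted sigmoidally against compound concentration to give IC50.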", "data": [{"smiles": "COc1cc(Nc2nc(-c3ccccc3F)nc3cn[nH]c23)ccc1N1CCOCC1", "note": "[Example 25, 5-(2-fluorophenyl)-N-(3-methoxy-4-morpholinophenyl)-1H-pyrazolo[4,3-d]pyrimidin-7-amine]", "values": [{"measurement": "IC50", "value": "0.01 to 0.1", "unit": "µM"}]}, {"smiles": "CC(C)C(C)n1cc(Nc2nc(-c3ccoc3)nc3cn[nH]c23)cn1", "note": "(stereo not shown) [Example 482, 5-(furan-3-yl)-N-(1-(3-methylbutan-2-yl)-1H-pyrazol-4-yl)-1H-pyrazolo[4,3-d]pyrimidin-7-amine]", "values": [{"measurement": "IC50", "value": "0.01 to 0.1", "unit": "µM"}]}, {"smiles": "CC(C)n1cc(Nc2nc(-c3cocn3)nc3cn[nH]c23)cn1", "note": "[Example 244, N-(1-isopropyl-1H-pyrazol-4-yl)-5-(oxazol-4-yl)-1H-pyrazolo[4,3-d]pyrimidin-7-amine]", "values": [{"measurement": "IC50", "value": "< 0.01", "unit": "µM"}]}, {"smiles": "CC(C)Cn1cc(Nc2nc(-c3ncco3)nc3cn[nH]c23)cn1", "note": "[Example 252, N-(1-isobutyl-1H-pyrazol-4-yl)-5-(oxazol-2-yl)-1H-pyrazolo[4,3-d]pyrimidin-7-amine]", "values": [{"measurement": "IC50", "value": "0.1 to 1", "unit": "µM"}]}, {"smiles": "N#CC1(n2cc(Nc3nc(-c4ccco4)nc4cn[nH]c34)cn2)CCCCC1", "note": "[Example 213, 1-(4-((5-(furan-2-yl)-1H-pyrazolo[4,3-d]pyrimidin-7-yl)amino)-1H-pyrazol-1-yl)cyclohexanecarbonitrile]", "values": [{"measurement": "IC50", "value": "0.1 to 1", "unit": "µM"}]}, {"smiles": "FC(F)(F)Cn1cc(Nc2nc(-c3ccco3)nc3cn[nH]c23)cn1", "note": "[Example 377, 5-(furan-2-yl)-N-(1-(2,2,2-trifluoroethyl)-1H-pyrazol-4-yl)-1H-pyrazolo[4,3-d]pyrimidin-7-amine]", "values": [{"measurement": "IC50", "value": "0.01 to 0.1", "unit": "µM"}]}, {"smiles": "c1nn(C2CCNC2)cc1Nc1nc(C2CCC2)nc2cn[nH]c12", "note": "(stereo not shown) [Example 462, 5-cyclobutyl-N-(1-(pyrrolidin-3-yl)-1H-pyrazol-4-yl)-1H-pyrazolo[4,3-d]pyrimidin-7-amine]", "values": [{"measurement": "IC50", "value": "< 0.01", "unit": "µM"}]}, {"smiles": "c1nn(C2CCOCC2)cc1Nc1nc(C2CC2)nc2cn[nH]c12", "note": "[Example 118, 5-cyclopropyl-N-(1-(tetrahydro-2H-pyran-4-yl)-1H-pyrazol-4-yl)-1H-pyrazolo[4,3-d]pyrimidin-7-amine]", "values": [{"measurement": "IC50", "value": "0.01 to 0.1", "unit": "µM"}]}, {"smiles": "c1ccc(-n2cc(Nc3nc(-c4ccc5cn[nH]c5c4)nc4cn[nH]c34)cn2)nc1", "note": "[Example 472, 5-(1H-indazol-6-yl)-N-(1-(pyridin-2-yl)-1H-pyrazol-4-yl)-1H-pyrazolo[4,3-d]pyrimidin-7-amine]", "values": [{"measurement": "IC50", "value": "0.1 to 1", "unit": "µM"}]}, {"smiles": "COCCCn1cc(Nc2nc(C3CC3)nc3cn[nH]c23)cn1", "note": "[Example 230, 5-cyclopropyl-N-(1-(3-methoxypropyl)-1H-pyrazol-4-yl)-1H-pyrazolo[4,3-d]pyrimidin-7-amine]", "values": [{"measurement": "IC50", "value": "0.01 to 0.1", "unit": "µM"}]}, {"smiles": "N#CC1(n2cc(Nc3nc(-c4ccoc4)nc4cn[nH]c34)cn2)CCCCC1", "note": "[Example 219, 1-(4-((5-(furan-3-yl)-1H-pyrazolo[4,3-d]pyrimidin-7-yl)amino)-1H-pyrazol-1-yl)cyclohexanecarbonitrile]", "values": [{"measurement": "IC50", "value": "0.1 to 1", "unit": "µM"}]}, {"smiles": "COc1cccc(-c2nc(Nc3cnn(C4CCOCC4)c3)c3[nH]ncc3n2)c1", "note": "[Example 409, 5-(3-methoxyphenyl)-N-(1-(tetrahydro-2H-pyran-4-yl)-1H-pyrazol-4-yl)-1H-pyrazolo[4,3-d]pyrimidin-7-amine]", "values": [{"measurement": "IC50", "value": "0.01 to 0.1", "unit": "µM"}]}, {"smiles": "CC(C)n1cc(Nc2nc(-c3ccco3)nc3cn[nH]c23)cn1", "note": "[Example 214, 5-(furan-2-yl)-N-(1-isopropyl-1H-pyrazol-4-yl)-1H-pyrazolo[4,3-d]pyrimidin-7-amine]", "values": [{"measurement": "IC50", "value": "< 0.01", "unit": "µM"}]}, {"smiles": "COCCn1cc(Nc2nc(-c3nc4ccccc4s3)nc3cn[nH]c23)cn1", "note": "[Example 456, 5-(benzo[d]thiazol-2-yl)-N-(1-(2-methoxyethyl)-1H-pyrazol-4-yl)-1H-pyrazolo[4,3-d]pyrimidin-7-amine]", "values": [{"measurement": "IC50", "value": "< 0.01", "unit": "µM"}]}, {"smiles": "COCCCn1cc(Nc2nc(-c3cnn(C)c3)nc3cn[nH]c23)cn1", "note": "[Example 436, N-(1-(3-methoxypropyl)-1H-pyrazol-4-yl)-5-(1-methyl-1H-pyrazol-4-yl)-1H-pyrazolo[4,3-d]pyrimidin-7-amine]", "values": [{"measurement": "IC50", "value": "0.1 to 1", "unit": "µM"}]}, {"smiles": "c1ccc(Sc2ccc(Nc3nc(-c4ccc5cn[nH]c5c4)nc4cn[nH]c34)cc2)cc1", "note": "[Example 515, 5-(1H-indazol-6-yl)-N-(4-(phenylthio)phenyl)-1H-pyrazolo[4,3-d]pyrimidin-7-amine]", "values": [{"measurement": "IC50", "value": "0.1 to 1", "unit": "µM"}]}, {"smiles": "CC(C)C(C)n1cc(Nc2nc(-c3ccc4cn[nH]c4c3)nc3cn[nH]c23)cn1", "note": "(stereo not shown) [Example 469, 5-(1H-indazol-6-yl)-N-(1-(3-methylbutan-2-yl)-1H-pyrazol-4-yl)-1H-pyrazolo[4,3-d]pyrimidin-7-amine]", "values": [{"measurement": "IC50", "value": "0.01 to 0.1", "unit": "µM"}]}, {"smiles": "CC(c1ccccc1)n1cc(Nc2nc(-c3ccoc3)nc3cn[nH]c23)cn1", "note": "(stereo not shown) [Example 487, 5-(furan-3-yl)-N-(1-(1-phenylethyl)-1H-pyrazol-4-yl)-1H-pyrazolo[4,3-d]pyrimidin-7-amine]", "values": [{"measurement": "IC50", "value": "0.1 to 1", "unit": "µM"}]}, {"smiles": "COc1cc(Nc2nc(-c3ccc4cn[nH]c4c3)nc3cn[nH]c23)ccc1N1CCOCC1", "note": "[Example 54, 5-(1H-indazol-6-yl)-N-(3-methoxy-4-morpholinophenyl)-1H-pyrazolo[4,3-d]pyrimidin-7-amine]", "values": [{"measurement": "IC50", "value": "< 0.01", "unit": "µM"}]}, {"smiles": "CN1CCN(c2ccc(Nc3nc(-c4c(F)cccc4F)nc4cn[nH]c34)cc2Cl)CC1", "note": "[Example 539, N-(3-chloro-4-(4-methylpiperazin-1-yl)phenyl)-5-(2,6-difluorophenyl)-1H-pyrazolo[4,3-d]pyrimidin-7-amine]", "values": [{"measurement": "IC50", "value": "0.01 to 0.1", "unit": "µM"}]}, {"smiles": "OCCN1CCN(c2ccc(Nc3nc(-c4c(F)cccc4F)nc4cn[nH]c34)cc2)CC1", "note": "[Example 501, 2-(4-(4-((5-(2,6-difluorophenyl)-1H-pyrazolo[4,3-d]pyrimidin-7-yl)amino)phenyl)piperazin-1-yl)ethan-1-ol]", "values": [{"measurement": "IC50", "value": "0.01 to 0.1", "unit": "µM"}]}, {"smiles": "Cn1cc(-c2nc(Nc3ccc(N4CCOCC4)cc3)c3[nH]ncc3n2)cn1", "note": "[Example 121, 5-(1-methyl-1H-pyrazol-4-yl)-N-(4-morpholinophenyl)-1H-pyrazolo[4,3-d]pyrimidin-7-amine]", "values": [{"measurement": "IC50", "value": "0.01 to 0.1", "unit": "µM"}]}, {"smiles": "CN1CCC(n2cc(Nc3nc(C4CCC4)nc4cn[nH]c34)cn2)CC1", "note": "[Example 206, 5-cyclobutyl-N-(1-(1-methylpiperidin-4-yl)-1H-pyrazol-4-yl)-1H-pyrazolo[4,3-d]pyrimidin-7-amine]", "values": [{"measurement": "IC50", "value": "< 0.01", "unit": "µM"}]}, {"smiles": "CC(=O)N1CCN(c2ccc(Nc3nc(-c4cccc(N)c4)nc4cn[nH]c34)cc2)CC1", "note": "[Example 14, 1-(4-(4-((5-(3-aminophenyl)-1H-pyrazolo[4,3-d]pyrimidin-7-yl)amino)phenyl)piperazin-1-yl)ethan-1-one]", "values": [{"measurement": "IC50", "value": "0.1 to 1", "unit": "µM"}]}, {"smiles": "CC(C)(C)N1CCC(n2cc(Nc3nc(-c4nc5ccccc5s4)nc4cn[nH]c34)cn2)CC1", "note": "[Example 411, 5-(benzo[d]thiazol-2-yl)-N-(1-(1-(tert-butyl)piperidin-4-yl)-1H-pyrazol-4-yl)-1H-pyrazolo[4,3-d]pyrimidin-7-amine]", "values": [{"measurement": "IC50", "value": "< 0.01", "unit": "µM"}]}, {"smiles": "c1cc(-c2nc(Nc3ccc(N4CCOCC4)cc3)c3[nH]ncc3n2)on1", "note": "[Example 69, 5-(isoxazol-5-yl)-N-(4-morpholinophenyl)-1H-pyrazolo[4,3-d]pyrimidin-7-amine]", "values": [{"measurement": "IC50", "value": "< 0.01", "unit": "µM"}]}, {"smiles": "COc1ccc(Nc2nc(C3CCCCCC3)nc3cn[nH]c23)cc1OC", "note": "[Example 388, 5-cycloheptyl-N-(3,4-dimethoxyphenyl)-1H-pyrazolo[4,3-d]pyrimidin-7-amine]", "values": [{"measurement": "IC50", "value": "0.1 to 1", "unit": "µM"}]}, {"smiles": "COCC(C)(C)n1cc(Nc2nc(C3CC3)nc3cn[nH]c23)cn1", "note": "[Example 283, 5-cyclopropyl-N-(1-(1-methoxy-2-methylpropan-2-yl)-1H-pyrazol-4-yl)-1H-pyrazolo[4,3-d]pyrimidin-7-amine]", "values": [{"measurement": "IC50", "value": "0.01 to 0.1", "unit": "µM"}]}]}
